Measured values: patent publication US10280198B2, “Therapeutic agents for reducing parathyroid hormone levels” (KAI PHARMACEUTICALS, INC., priority 2009, dated 2019)
Structures can show the parent of a compound that is named as a salt. Where two headings read alike, the source gives them in different places. Square brackets hold non-standard residues; d marks the D form. Peptide text beside a SMILES is read from it.

How the values were obtained:
plasma PTH [1] = assay: 1K1C rat model of acute renal insufficiency, plasma PTH after dosing; type: in vivo; conditions: 1K1C rats, oral 30 mg/kg
[2] = molecular target: T1, human calcium-sensing receptor (CaSR) (Homo sapiens, UniProt P41180); assay: In vitro cell assay in HEK-293 expressing the human calcium-sensing receptor (IP1 production); type: cell-based; conditions: for potency to activate the human CaSR in vitro: HEK-293 cell assay; for EC50: Table 5, IP1 production in HEK293 cells expressing human CaSR, eight concentrations in duplicate, read-out: EC50 in CaSR in vitro assay
T1 construct: expressed in transfected cells; host or cells: HEK 293T cells, transiently transfected (lipofectamine 2000); in some cases HEK293 cells stably transfected
T1 sequence (P41180 20-1078): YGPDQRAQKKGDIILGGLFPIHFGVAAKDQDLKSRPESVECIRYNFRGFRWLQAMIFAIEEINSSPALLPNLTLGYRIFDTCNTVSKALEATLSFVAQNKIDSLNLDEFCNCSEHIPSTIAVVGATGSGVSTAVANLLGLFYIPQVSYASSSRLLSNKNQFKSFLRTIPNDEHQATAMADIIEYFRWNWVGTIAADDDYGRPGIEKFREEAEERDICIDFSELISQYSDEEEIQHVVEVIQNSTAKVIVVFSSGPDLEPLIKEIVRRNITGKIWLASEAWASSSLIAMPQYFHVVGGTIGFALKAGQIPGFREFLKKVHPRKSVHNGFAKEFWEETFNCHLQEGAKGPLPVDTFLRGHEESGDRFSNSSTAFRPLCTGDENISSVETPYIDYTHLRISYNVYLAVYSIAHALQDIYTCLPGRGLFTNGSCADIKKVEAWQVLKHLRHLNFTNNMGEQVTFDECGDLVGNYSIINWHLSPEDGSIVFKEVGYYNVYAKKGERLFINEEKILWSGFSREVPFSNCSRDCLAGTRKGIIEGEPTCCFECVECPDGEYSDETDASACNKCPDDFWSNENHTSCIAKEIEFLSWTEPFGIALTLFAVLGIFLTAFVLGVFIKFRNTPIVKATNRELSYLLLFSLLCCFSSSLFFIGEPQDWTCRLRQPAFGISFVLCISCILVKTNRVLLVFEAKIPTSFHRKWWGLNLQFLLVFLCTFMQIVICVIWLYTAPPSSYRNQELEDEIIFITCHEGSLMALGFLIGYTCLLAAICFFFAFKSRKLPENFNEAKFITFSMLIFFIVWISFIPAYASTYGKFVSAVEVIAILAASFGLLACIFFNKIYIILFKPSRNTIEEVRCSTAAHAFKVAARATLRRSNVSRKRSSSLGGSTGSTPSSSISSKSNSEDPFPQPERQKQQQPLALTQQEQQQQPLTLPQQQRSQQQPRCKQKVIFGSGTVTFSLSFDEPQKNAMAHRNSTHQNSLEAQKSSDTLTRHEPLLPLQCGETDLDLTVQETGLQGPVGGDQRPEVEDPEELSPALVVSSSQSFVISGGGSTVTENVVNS
Method in brief: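 HEK293 cells transfected with human CaSR exposed to peptides at eight concentrations in duplicate (top 1 mM or 300 μM, ½-log dilutions) at 37 °C for 1.5 h.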

plasma histamine [3] = assay: In vivo histamine release after IV bolus in normal Sprague Dawley rats (Example 6, FIG. 3 and 4)
[4] = test system: rat peritoneal mast cells; assay: In vitro histamine induction in rat peritoneal mast cells; type: cell-based
Method in brief: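 Mast cells from peritoneal lavage of Sprague Dawley rats were incubated with compound at 10 μM for 15 min at 37 °C in HBSS + 25 mM HEPES pH 7.4. Supernatant histamine measured by EIA; response expressed as fold change versus pre-incubation levels.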

plasma histamine [5] = conditions: rat
Procedure: For the in vivo evaluation of histamine release, compounds were dosed in isoflurane-anesthetized normal rats at 2 mg/kg by IV bolus (administered over less than one minute). Plasma histamine was measured 5 minutes after compound administration (Cayman histamine EIA #589651).

plasma histamine [6] = conditions: rat, in vivo, iv
plasma PTH [7] = assay: In vivo PTH lowering after IV bolus in isoflurane-anesthetized normal Sprague Dawley rats; design: species or system rat; conditions: Table 2; for % PTH reduction of baseline at 1 hour post IV administration of 0.5 mg/kg compound: isoflurane-anesthetized normal rats, 0.5 mg/kg IV; for 0.5 mg/kg IV bolus % PTH AUC of saline control: normal rats, AUC 1-4 h
Method in brief: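 Peptides were given as a 0.5 mg/kg IV bolus to normal Sprague Dawley rats kept under isoflurane throughout, with saline bolus controls.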

Row | SMILES | potency to activate the human CaSR in vitro [2] | EC50 [2] | Histamine in vitro Fold change of non-treated at 10 uM [4] | Histamine response in vivo Fold change from pre-dose levels 5′ post injection 2 mg/kg IV bolus (plasma histamine [5]) | % PTH reduction of baseline at 1 hour post IV administration of 0.5 mg/kg compound (plasma PTH [7]) | 0.5 mg/kg IV bolus % PTH AUC of saline control (plasma PTH [7]) | further results
1 | C[C@@H](NCCCc1cccc(C(F)(F)F)c1)c1cccc2ccccc12 [cinacalcet, Cinacalcet hydrochloride] |  |  |  |  |  |  | duration of PTH lowering (plasma PTH [1]): up to 6 hours; lowering of PTH (plasma PTH [1]): approximately 50%
2 | CC(=O)N[C@H](CS)C(=O)N[C@H](CCCNC(=N)N)C(=O)N[C@H](CCCNC(=N)N)C(=O)N[C@H](CCCNC(=N)N)C(=O)N[C@H](CCCNC(=N)N)C(=O)N[C@H](CCCNC(=N)N)C(=O)N[C@H](CCCNC(=N)N)C(=O)N[C@H](CCCNC(=N)N)C(=O)N[C@H](CCCNC(=N)N)C(N)=O [SEQ ID NO: 41, Ac-crrrrrrrr-NH2] | more potent at activating the CaSR | 0.3 µM |  |  |  |  | histamine fold over baseline (plasma histamine [3]; equimolar IV bolus 2.1 μmol/kg, normal rats, 5 minutes after dosing, FIG. 3): 6-9 fold; histamine response after IV bolus (plasma histamine [3]; rats, IV bolus): largest induction of histamine
3 | CC(=O)N[C@H](CSSC[C@H](N)C(=O)O)C(=O)N[C@H](C)C(=O)N[C@H](CCCNC(=N)N)C(=O)N[C@H](CCCNC(=N)N)C(=O)N[C@H](CCCNC(=N)N)C(=O)N[C@H](C)C(=O)N[C@H](CCCNC(=N)N)C(N)=O [SEQ ID NO: 3, Ac-c(C)arrrar-NH2] |  |  | 0.6 fold | 0.9 fold |  |  | fold increase in histamine level relative to pre-dose (plasma histamine [3]; 3 mg/kg IV bolus, isoflurane-anesthetized Sprague Dawley rats, FIG. 4): no apparent histamine response
4 | CC(=O)N[C@H](CS)C(=O)N[C@H](C)C(=O)N[C@H](CCCNC(=N)N)C(=O)N[C@H](C)C(=O)N[C@H](CCCNC(=N)N)C(=O)N[C@H](CCCNC(=N)N)C(=O)N[C@H](CCCNC(=N)N)C(N)=O [SEQ ID NO: 15, Ac-cararrr-NH2] (Ac-[dC][dA][dR][dA][dR][dR][dR]-NH2) | significantly reduced potency in vitro in activating the CaSR | 13 µM | 2.5 fold | 1.0 fold | 75% | 116% | histamine response after IV bolus (plasma histamine [6]): lack of a histamine response
5 | CC(=O)N[C@H](CS)C(=O)N[C@H](CCCNC(=N)N)C(=O)N[C@H](C)C(=O)N[C@H](CCCNC(=N)N)C(=O)N[C@H](CCCNC(=N)N)C(=O)N[C@H](C)C(=O)N[C@H](CCCNC(=N)N)C(N)=O [SEQ ID NO: 23, Ac-crarrar-NH2] (Ac-[dC][dR][dA][dR][dR][dA][dR]-NH2) |  |  | 1.5 fold | 0.8 fold | 0% | 43% | 
